The test relates to HIV-1 LAI. The test is described as follows: microbe, parasite or virus in culture. Particulars: for Combination Indices at % HIV Inhibition (Confidence Interval) 50%: 50% HIV inhibition; for Combination Indices at % HIV Inhibition (Confidence Interval) 50% / Combination Indices at % HIV Inhibition (Confidence Interval) 75% / Combination Indices at % HIV Inhibition (Confidence Interval) 90%: 95% CI in parenthesis; for Combination Indices at % HIV Inhibition (Confidence Interval) 75%: 75% HIV inhibition; for Combination Indices at % HIV Inhibition (Confidence Interval) 90%: 90% HIV inhibition; for EC50: Human immunodeficiency virus 1, MT2, 120 h; for Overall Result: two-drug combination with Compound 1, all ratios and effect levels, MT-2/HIV-1 LAI, RT assay. As for the experimental part: Virus and cell lines. The T-cell lines, MT-2 and PM-1 were obtained through the AIDS Research and Reference Reagent Program, NIAID, and were contributed by Dr. D. Richman and Dr. R. Gallo, respectively. Both cell lines were cultured in RPMI 1640 medium supplemented with 10% fetal bovine serum, 2 mM L-glutamine and sub-cultured twice a week. The LAI strain of HIV-1 was obtained from the Fred Hutchinson Cancer Research Center, and the Bal strain was from NIH. Both virus stocks were amplified and titered in MT-2 cells (LAI) and PM-1 cells (Bal) using a virus infectivity assay.
Drug Susceptibility and Cytotoxicity Assays. For drug susceptibility assays, MT-2 cells were infected with HIV-1 LAI (or PM-1 cells with HIV-1 Bal) at an MOI of 0.005, and seeded into 96-well microtiter plates (0.1×10^6 cells/ml) containing serial dilutions of test compounds. […] Each drug ratio consisted of an array of 3-fold serial dilutions, and was performed in quadruplicate. The plates were incubated at 37° C./5% CO2. The MT-2 cells infected with HIV-1 LAI were incubated for 5 days. On day-five post-infection, 20 μl from each well was harvested and quantitated by a reverse transcriptase (RT) assay, or in samples involving non-nucleoside RT inhibitors, an MTS assay. The PM-1 cells infected with HIV-1 Bal and used for studying the combinations with CCR5 inhibitors were incubated for six days. On day-six post-infection, 20 μl from each well was harvested, 20- and 50-fold diluted and quantitated by p24 assay. Cytotoxicity assays were performed using uninfected cells, exposed to the same drug combinations, and incubated for six days. Cell viability was determined by an XTT assay. The CC50 values were calculated by using the exponential form of the median effect equation as mentioned below for calculation of EC50.
Analysis of Drug Combination Effects. For determination of CI values, drugs were diluted in a fixed ratio and multiple ratios were analyzed. The drug serial dilutions spanned a range of concentrations near the EC50 value of each compound, so that equivalent antiviral activities could be compared. Concentration-response curves were estimated for each individual drug and every combination using the median-effect equation. The equation was fit using a nonlinear regression routine (Proc Nlin) in PC SAS version 8.01 (SAS Institute Inc., SAS Version 8.01, Cary, N.C.: SAS Institute Inc., 1990).
In this equation, Fa stands for “fraction affected,” and represents the fraction of the viral load that has been inactivated. […] ED50 is drug concentration that is expected to reduce the amount of virus by 50%, and m is a parameter that reflects the slope of the concentration-response curve.
To assess antiviral effects of different drug combination treatments, combination indices (CIs) were calculated according to Chou and Rideout. The combination index was computed as CI=[D]1/[Dm]1+[D]2/[Dm]2
In this equation [Dm]1 and [Dm]2 are the concentrations of drugs that would individually produce a specific level of effect, while [D]1 and [D]2 are the concentrations of drugs in combination that would produce the same level of effect.
Theoretically, additivity is implied if the CI is equal to one, synergy if the CI is less than one, and antagonism if the CI is greater than one. […] At best, we can construct a range that contains the likely values for the CI, given the noise in the data. In this report, these ranges are reported in parentheses next to each point estimate of the CI. […] If the range fell entirely above 1.0, we would infer antagonistic behavior. If the range were to include 1.0, we would infer additivity.
In carrying out the combination experiments below, the EC50 for Compound 1 and each comparator compound was determined during the course of each study, and used in the subsequent data analysis.

The mark [1] stands for this setting: combination with Compound 1, EC50 ratio 1:1 (Compound 1:comparator).
The mark [2] stands for this setting: combination with Compound 1, EC50 ratio 1:1.
The mark [3] stands for this setting: combination with Compound 1, EC50 ratio 1:2.5.
[4] abbreviates: combination with Compound 1, EC50 ratio 2.5:1.

For `CC[C@H](C)[C@H](NC(=O)[C@H](CCC(N)=O)NC(=O)[C@H](C)NC(=O)[C@H](CCC(N)=O)NC(=O)[C@H](CCC(=O)O)NC(=O)[C@H](CC(C)C)NC(=O)[C@H](CC(C)C)NC(=O)[C@H](C)NC(=O)[C@@H](NC(=O)[C@@H](NC(=O)[C@H](CCCCN)NC(=O)[C@H](CCC(N)=O)NC(=O)[C@H](CCC(=O)O)NC(=O)[C@H](Cc1c[nH]c2ccccc12)NC(=O)[C@H](CCC(=O)O)NC(=O)[C@H](CCC(N)=O)NC(=O)[C@H](Cc1c[nH]c2ccccc12)NC(C)=O)[C@@H](C)CC)[C@@H](C)O)C(=O)N[C@@H](CCC(N)=O)C(=O)N[C@@H](CCC(N)=O)C(=O)N[C@@H](CCC(=O)O)C(=O)N[C@@H](CCCCN)C(=O)N[C@@H](CC(N)=O)C(=O)N[C@@H](CCC(=O)O)C(=O)N[C@@H](Cc1ccc(O)cc1)C(=O)N[C@@H](CCC(=O)O)C(=O)N[C@@H](CC(C)C)C(=O)N[C@@H](CCC(N)=O)C(=O)N[C@@H](CCCCN)C(=O)N[C@@H](CC(C)C)C(=O)N[C@@H](CC(=O)O)C(=O)N[C@@H](CCCCN)C(=O)N[C@@H](Cc1c[nH]c2ccccc12)C(=O)N[C@@H](C)C(=O)N[C@@H](CO)C(=O)N[C@@H](CC(C)C)C(=O)N[C@@H](Cc1c[nH]c2ccccc12)C(=O)N[C@@H](CCC(=O)O)C(=O)N[C@@H](Cc1c[nH]c2ccccc12)C(=O)N[C@@H](Cc1ccccc1)C(N)=O` [Compound T-1249], the “Combination Indices at % HIV Inhibition (Confidence Interval) 50%” value is 0.25 (0.20, 0.30) under setting [1]; 0.32 (0.28 0.35) under setting [3]; 0.19 (0.17, 0.22) under setting [4]. In addition, the “Combination Indices at % HIV Inhibition (Confidence Interval) 75%” value under setting [2] was 0.14 (0.10, 0.19); the “Combination Indices at % HIV Inhibition (Confidence Interval) 75%” value under setting [3] was 0.17 (0.14, 0.19); the “Combination Indices at % HIV Inhibition (Confidence Interval) 75%” value under setting [4] is recorded as 0.14 (0.12, 0.16). For the same compound, the “Combination Indices at % HIV Inhibition (Confidence Interval) 90%” value is recorded as 0.08 (0.04, 0.12) under setting [2]; 0.09 (0.06, 0.11) under setting [3]; 0.10 (0.08, 0.13) under setting [4].
As to `CC(C)CN(C[C@@H](O)[C@H](Cc1ccccc1)NC(=O)O[C@H]1CCOC1)S(=O)(=O)c1ccc(N)cc1` [Amprenavir, amprenavir], the EC50 turned out to be 21 nM and the “Overall Result” value was “Additive-”. Further, under setting [1], the “Combination Indices at % HIV Inhibition (Confidence Interval) 50%” value was 0.89 (0.73, 1.06). Under setting [2], the “Combination Indices at % HIV Inhibition (Confidence Interval) 75%” value was 0.93 (0.68, 1.17) and the “Combination Indices at % HIV Inhibition (Confidence Interval) 90%” value is reported as 0.96 (0.57, 1.36). Moreover, under setting [3], the “Combination Indices at % HIV Inhibition (Confidence Interval) 50%” value is recorded as 1.30 (0.84, 1.76); the “Combination Indices at % HIV Inhibition (Confidence Interval) 75%” value is 1.08 (0.55, 1.62); the “Combination Indices at % HIV Inhibition (Confidence Interval) 90%” value is reported as 0.90 (0.20, 1.60). Besides, under setting [4], the “Combination Indices at % HIV Inhibition (Confidence Interval) 50%” value is recorded as 0.41 (0.34, 0.48); the “Combination Indices at % HIV Inhibition (Confidence Interval) 75%” value is 0.32 (0.25, 0.40); the “Combination Indices at % HIV Inhibition (Confidence Interval) 90%” value is listed as 0.25 (0.16, 0.35). Besides, where the note is “listed as amprenavir”, the “Overall Result” value was “additive to synergistic”.
Regarding `COc1ncc(OC)c2c(C(=O)C(=O)N3CCN(C(=O)c4ccccc4)CC3)c[nH]c12` [Compound 1, 1-benzoyl-4-[2-(4,7-dimethoxy-1H-pyrrolo[2,3-c]pyridin-3-yl)-1,2-dioxoethyl]-piperazine], the EC50 lay within 1 to 4 nM.
With `Cc1cn([C@H]2C=C[C@@H](CO)O2)c(=O)[nH]c1=O` [Stavudine, stavudine], the 50% effective concentration (EC50) was found to be 250 nM and the “Overall Result” value was “Additive-”. In addition, the “Combination Indices at % HIV Inhibition (Confidence Interval) 50%” value under setting [1] is given as 1.47 (1.16, 1.79). Under setting [2], the “Combination Indices at % HIV Inhibition (Confidence Interval) 75%” value was 0.60 (0.42, 0.78) and the “Combination Indices at % HIV Inhibition (Confidence Interval) 90%” value is 0.25 (0.13, 0.38). Further, under setting [3], the “Combination Indices at % HIV Inhibition (Confidence Interval) 50%” value is recorded as 0.50 (0.37, 0.64); the “Combination Indices at % HIV Inhibition (Confidence Interval) 75%” value is listed as 0.29 (0.18, 0.40); the “Combination Indices at % HIV Inhibition (Confidence Interval) 90%” value is on record as 0.18 (0.07, 0.28). Moreover, under setting [4], the “Combination Indices at % HIV Inhibition (Confidence Interval) 50%” value is given as 0.69 (0.47, 0.91); the “Combination Indices at % HIV Inhibition (Confidence Interval) 75%” value is 0.55 (0.30, 0.80); the “Combination Indices at % HIV Inhibition (Confidence Interval) 90%” value is recorded as 0.45 (0.12, 0.78). In addition, the “Overall Result” value (listed as stavudine) is recorded as “additive-synergistic”.
On to `c1cc(CN2CCCNCCNCCCNCC2)ccc1CN1CCCNCCNCCCNCC1` [AMD-3100], for which the EC50 amounted to 8 nM. Besides, the “Combination Indices at % HIV Inhibition (Confidence Interval) 50%” value under setting [1] was 0.40 (0.34, 0.46). Under setting [2], the “Combination Indices at % HIV Inhibition (Confidence Interval) 75%” value is 0.27 (0.21, 0.33) and the “Combination Indices at % HIV Inhibition (Confidence Interval) 90%” value is reported as 0.18 (0.12, 0.24). Moreover, under setting [3], the “Combination Indices at % HIV Inhibition (Confidence Interval) 50%” value is 0.25 (0.21, 0.29); the “Combination Indices at % HIV Inhibition (Confidence Interval) 75%” value is listed as 0.14 (0.11, 0.17); the “Combination Indices at % HIV Inhibition (Confidence Interval) 90%” value is listed as 0.08 (0.05, 0.10). Moreover, under setting [4], the “Combination Indices at % HIV Inhibition (Confidence Interval) 50%” value was 0.15 (0.11, 0.20); the “Combination Indices at % HIV Inhibition (Confidence Interval) 75%” value was 0.28 (0.18, 0.38); the “Combination Indices at % HIV Inhibition (Confidence Interval) 90%” value was 0.51 (0.20, 0.83).
In the case of `Nc1nc(=O)n([C@@H]2CS[C@H](CO)O2)cc1F` [Emtricitabine, emtricitabine], the concentration for a half-maximal effect (EC50) came out at 34 nM and the “Overall Result” value was “Synergistic”. The “Combination Indices at % HIV Inhibition (Confidence Interval) 50%” value under setting [1] is recorded as 0.57 (0.49, 0.64). For the same compound, under setting [2], the “Combination Indices at % HIV Inhibition (Confidence Interval) 75%” value was 0.33 (0.27, 0.39) and the “Combination Indices at % HIV Inhibition (Confidence Interval) 90%” value is 0.19 (0.14, 0.24). For the same compound, under setting [3], the “Combination Indices at % HIV Inhibition (Confidence Interval) 50%” value is listed as 0.38 (0.31, 0.45); the “Combination Indices at % HIV Inhibition (Confidence Interval) 75%” value is given as 0.48 (0.36, 0.60); the “Combination Indices at % HIV Inhibition (Confidence Interval) 90%” value is reported as 0.60 (0.36, 0.84). Moreover, under setting [4], the “Combination Indices at % HIV Inhibition (Confidence Interval) 50%” value is recorded as 0.17 (0.15, 0.19); the “Combination Indices at % HIV Inhibition (Confidence Interval) 75%” value is 0.21 (0.17, 0.25); the “Combination Indices at % HIV Inhibition (Confidence Interval) 90%” value was 0.26 (0.18, 0.34). The “Overall Result” value (listed as emtricitabine) was “consistent synergy at all effective levels and concentration ratios”.
Turning to `O=c1[nH]cnc2c1ncn2[C@H]1CC[C@@H](CO)O1` [Didanosine, didanosine], the concentration giving a half-maximal response (EC50) was 1800 nM. For the same compound, under setting [1], the “Combination Indices at % HIV Inhibition (Confidence Interval) 50%” value is on record as 1.29 (1.18, 1.40). Besides, under setting [2], the “Combination Indices at % HIV Inhibition (Confidence Interval) 75%” value is 0.69 (0.60, 0.78) and the “Combination Indices at % HIV Inhibition (Confidence Interval) 90%” value is 0.37 (0.29, 0.44). In addition, under setting [3], the “Combination Indices at % HIV Inhibition (Confidence Interval) 50%” value was 0.53 (0.46, 0.60); the “Combination Indices at % HIV Inhibition (Confidence Interval) 75%” value was 0.32 (0.26, 0.38); the “Combination Indices at % HIV Inhibition (Confidence Interval) 90%” value is recorded as 0.19 (0.13, 0.25). Further, under setting [4], the “Combination Indices at % HIV Inhibition (Confidence Interval) 50%” value is 0.95 (0.74, 1.17); the “Combination Indices at % HIV Inhibition (Confidence Interval) 75%” value is 0.69 (0.48, 0.90); the “Combination Indices at % HIV Inhibition (Confidence Interval) 90%” value is given as 0.50 (0.26, 0.74).

The term EC50 denotes the concentration giving half of the maximal effect.

Values taken from patent US20050215543A1, “Methods of treating HIV infection” (priority 2004, published 2005).
